Results: ChEMBL document CHEMBL5723379, “Affinity On-target Cellular Literature for EUbOPEN Chemogenomic Library” (2024)

Columns and labels:
[1] = target: T1, Peroxisome proliferator-activated receptor gamma (Homo sapiens, UniProt P37231); assay: Affinity On-target Cellular interaction: (Reporter gene assay (HEK293T cells)) EUB0001147a PPARG; type: functional, cell-based, HEK-293T; design: mode of action Agonist, recommended concentration 1 uM
T1 sequence (P37231 whole entry): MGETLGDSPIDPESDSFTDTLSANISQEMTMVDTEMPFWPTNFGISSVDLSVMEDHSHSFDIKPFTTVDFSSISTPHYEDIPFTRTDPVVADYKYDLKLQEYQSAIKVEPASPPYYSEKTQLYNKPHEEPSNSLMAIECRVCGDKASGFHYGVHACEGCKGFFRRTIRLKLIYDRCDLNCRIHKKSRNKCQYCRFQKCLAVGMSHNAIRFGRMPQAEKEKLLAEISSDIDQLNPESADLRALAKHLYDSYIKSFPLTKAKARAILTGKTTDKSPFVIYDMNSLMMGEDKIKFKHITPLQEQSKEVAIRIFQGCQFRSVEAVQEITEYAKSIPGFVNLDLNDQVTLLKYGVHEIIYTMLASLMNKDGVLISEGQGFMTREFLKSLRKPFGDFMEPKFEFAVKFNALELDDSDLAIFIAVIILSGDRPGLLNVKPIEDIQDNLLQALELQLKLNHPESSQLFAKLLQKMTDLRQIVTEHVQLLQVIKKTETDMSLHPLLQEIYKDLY

[2] = target: T2, Peroxisome proliferator-activated receptor alpha (Homo sapiens, UniProt Q07869); assay: Affinity On-target Cellular interaction: (Reporter gene assay (HEK293T cells)) EUB0001147a PPARA; type: functional, cell-based, HEK-293T; design: mode of action Agonist, recommended concentration 1 uM
T2 sequence (Q07869 whole entry): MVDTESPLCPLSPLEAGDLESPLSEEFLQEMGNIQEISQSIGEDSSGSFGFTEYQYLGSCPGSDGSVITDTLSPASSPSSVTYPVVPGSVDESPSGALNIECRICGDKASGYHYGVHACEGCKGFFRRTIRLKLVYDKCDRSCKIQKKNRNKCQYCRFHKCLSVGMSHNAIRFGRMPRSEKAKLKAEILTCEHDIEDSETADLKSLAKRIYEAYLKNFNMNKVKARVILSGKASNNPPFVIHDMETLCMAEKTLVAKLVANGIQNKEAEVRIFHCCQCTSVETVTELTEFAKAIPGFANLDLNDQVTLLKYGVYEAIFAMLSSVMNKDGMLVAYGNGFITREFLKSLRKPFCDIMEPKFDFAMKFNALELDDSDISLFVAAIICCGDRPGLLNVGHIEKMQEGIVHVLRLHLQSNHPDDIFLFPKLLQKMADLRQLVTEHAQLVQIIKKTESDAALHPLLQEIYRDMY

Vitamin D3 receptor = Vitamin D3 receptor (Homo sapiens, UniProt P11473); assay: Affinity On-target Cellular interaction: (Reporter gene assay (HEK293T cells)) EUB0000582a VDR; type: functional, cell-based, HEK-293T; design: mode of action Agonist, recommended concentration 1 uM
Chain of Vitamin D3 receptor (P11473 whole entry): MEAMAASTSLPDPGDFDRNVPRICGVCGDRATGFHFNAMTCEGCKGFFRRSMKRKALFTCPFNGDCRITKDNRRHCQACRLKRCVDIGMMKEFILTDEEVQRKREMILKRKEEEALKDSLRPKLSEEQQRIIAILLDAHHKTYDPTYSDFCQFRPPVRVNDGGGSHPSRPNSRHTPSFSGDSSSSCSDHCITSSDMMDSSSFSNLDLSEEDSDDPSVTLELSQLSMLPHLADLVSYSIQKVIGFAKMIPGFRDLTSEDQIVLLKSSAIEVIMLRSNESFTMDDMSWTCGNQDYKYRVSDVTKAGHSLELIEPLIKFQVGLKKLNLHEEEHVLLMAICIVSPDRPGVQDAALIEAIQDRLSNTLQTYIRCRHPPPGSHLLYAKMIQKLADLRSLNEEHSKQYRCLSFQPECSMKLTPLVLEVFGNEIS

[3] = target: T2, Peroxisome proliferator-activated receptor alpha; assay: Affinity On-target Cellular interaction: (Reporter gene assay (HEK293T cells)) EUB0000188b PPARA; type: functional, cell-based, HEK-293T; design: mode of action Agonist, recommended concentration 1 uM
[4] = target: T3, Peroxisome proliferator-activated receptor delta (Homo sapiens, UniProt Q03181); assay: Affinity On-target Cellular interaction: (Reporter gene assay (HEK293T cells)) EUB0000188b PPARD; type: functional, cell-based, HEK-293T; design: mode of action Agonist, recommended concentration 1 uM
T3 sequence (Q03181 whole entry): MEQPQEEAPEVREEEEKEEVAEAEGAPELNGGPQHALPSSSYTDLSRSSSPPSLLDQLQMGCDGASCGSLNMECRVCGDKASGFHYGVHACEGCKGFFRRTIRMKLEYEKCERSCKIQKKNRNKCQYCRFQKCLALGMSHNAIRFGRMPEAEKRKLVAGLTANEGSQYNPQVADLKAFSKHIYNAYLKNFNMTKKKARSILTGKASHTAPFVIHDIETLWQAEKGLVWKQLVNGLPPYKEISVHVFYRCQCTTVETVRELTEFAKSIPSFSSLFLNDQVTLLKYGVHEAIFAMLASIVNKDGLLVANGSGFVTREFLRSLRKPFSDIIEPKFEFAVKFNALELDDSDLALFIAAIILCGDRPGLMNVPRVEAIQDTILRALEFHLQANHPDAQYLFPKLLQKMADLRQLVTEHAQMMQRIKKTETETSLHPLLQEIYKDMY

[5] = target: T1, Peroxisome proliferator-activated receptor gamma; assay: Affinity On-target Cellular interaction: (Reporter gene assay (HEK293T cells)) EUB0000188b PPARG; type: functional, cell-based, HEK-293T; design: mode of action Agonist, recommended concentration 1 uM
[6] = target: T1, Peroxisome proliferator-activated receptor gamma; assay: Affinity On-target Cellular interaction: (Reporter gene assay (HEK293T cells)) EUB0001150a PPARG; type: functional, cell-based, HEK-293T; design: mode of action Antagonist, recommended concentration 10 uM
[7] = target: T2, Peroxisome proliferator-activated receptor alpha; assay: Affinity On-target Cellular interaction: (Reporter gene assay (HEK293T cells)) EUB0001150a PPARA; type: functional, cell-based, HEK-293T; design: mode of action Antagonist, recommended concentration 10 uM
[8] = target: T2, Peroxisome proliferator-activated receptor alpha; assay: Affinity On-target Cellular interaction: (Reporter gene assay (HEK293T cells)) EUB0001140a PPARA; type: functional, cell-based, HEK-293T; design: mode of action Agonist, recommended concentration 1 uM
[9] = target: T4, Oxysterols receptor LXR-beta (Homo sapiens, UniProt P55055)
T4 sequence (P55055 whole entry): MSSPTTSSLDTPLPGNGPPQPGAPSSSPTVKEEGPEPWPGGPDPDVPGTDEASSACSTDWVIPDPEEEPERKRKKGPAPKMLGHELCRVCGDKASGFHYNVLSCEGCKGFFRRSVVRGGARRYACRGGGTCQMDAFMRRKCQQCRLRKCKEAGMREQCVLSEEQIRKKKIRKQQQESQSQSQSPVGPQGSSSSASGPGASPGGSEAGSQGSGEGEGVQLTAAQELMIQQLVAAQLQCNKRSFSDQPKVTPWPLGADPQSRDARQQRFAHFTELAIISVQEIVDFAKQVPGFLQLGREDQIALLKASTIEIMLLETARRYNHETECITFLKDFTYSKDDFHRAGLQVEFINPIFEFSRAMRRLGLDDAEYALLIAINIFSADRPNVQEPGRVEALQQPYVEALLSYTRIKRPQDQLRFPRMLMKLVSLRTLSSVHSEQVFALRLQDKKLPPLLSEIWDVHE

[10] = target: T5, Oxysterols receptor LXR-alpha (Homo sapiens, UniProt Q13133); assay: Affinity On-target Cellular interaction: (Reporter gene assay (HEK293T cells)) EUB0000082b NR1H3; type: functional, cell-based, HEK-293T; design: mode of action Agonist, recommended concentration 3 uM
T5 sequence (Q13133 whole entry): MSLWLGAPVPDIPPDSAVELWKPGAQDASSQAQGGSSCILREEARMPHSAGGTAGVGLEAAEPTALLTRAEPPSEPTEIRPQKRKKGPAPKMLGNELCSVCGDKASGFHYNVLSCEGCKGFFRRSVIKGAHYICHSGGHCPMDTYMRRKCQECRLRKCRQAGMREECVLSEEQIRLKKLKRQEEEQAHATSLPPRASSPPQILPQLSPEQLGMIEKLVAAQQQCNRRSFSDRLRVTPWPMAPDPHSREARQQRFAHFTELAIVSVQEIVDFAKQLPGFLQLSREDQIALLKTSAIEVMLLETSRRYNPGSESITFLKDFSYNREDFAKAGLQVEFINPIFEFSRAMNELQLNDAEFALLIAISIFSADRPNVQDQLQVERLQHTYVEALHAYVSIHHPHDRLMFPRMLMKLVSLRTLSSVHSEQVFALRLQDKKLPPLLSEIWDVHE

[11] = target: T3, Peroxisome proliferator-activated receptor delta; assay: Affinity On-target Cellular interaction: (Reporter gene assay (HEK293T cells)) EUB0001151a PPARD; type: functional, cell-based, HEK-293T; design: mode of action Antagonist, recommended concentration 1 uM
[12] = target: T5, Oxysterols receptor LXR-alpha; assay: Affinity On-target Cellular interaction: (Reporter gene assay (HEK293T cells)) EUB0000183b NR1H3; type: functional, cell-based, HEK-293T; design: mode of action Antagonist, recommended concentration 3 uM
[13] = target: T4, Oxysterols receptor LXR-beta; assay: Affinity On-target Cellular interaction: (Reporter gene assay (HEK293T cells)) EUB0000183b NR1H2; type: functional, cell-based, HEK-293T; design: mode of action Antagonist, recommended concentration 3 uM
[14] = target: T1, Peroxisome proliferator-activated receptor gamma; assay: Affinity On-target Cellular interaction: (Reporter gene assay (HEK293T cells)) EUB0000571a PPARG; type: functional, cell-based, HEK-293T; design: mode of action Agonist, recommended concentration 1 uM
[15] = target: Lysine-specific demethylase 4A (Homo sapiens) (UniProt O75164); assay: Affinity On-target Cellular interaction: (Cellular thermal shift assay (CETSA), U2OS cells) EUB0002543a KDM4A; type: functional, cell-based; design: recommended concentration 1 uM; conditions: Affinity On-target Cellular Source Knowledge https://www.nature.com/articles/ncomms14773#Tab1
Chain of Lysine-specific demethylase 4A (Homo sapiens) (O75164 whole entry): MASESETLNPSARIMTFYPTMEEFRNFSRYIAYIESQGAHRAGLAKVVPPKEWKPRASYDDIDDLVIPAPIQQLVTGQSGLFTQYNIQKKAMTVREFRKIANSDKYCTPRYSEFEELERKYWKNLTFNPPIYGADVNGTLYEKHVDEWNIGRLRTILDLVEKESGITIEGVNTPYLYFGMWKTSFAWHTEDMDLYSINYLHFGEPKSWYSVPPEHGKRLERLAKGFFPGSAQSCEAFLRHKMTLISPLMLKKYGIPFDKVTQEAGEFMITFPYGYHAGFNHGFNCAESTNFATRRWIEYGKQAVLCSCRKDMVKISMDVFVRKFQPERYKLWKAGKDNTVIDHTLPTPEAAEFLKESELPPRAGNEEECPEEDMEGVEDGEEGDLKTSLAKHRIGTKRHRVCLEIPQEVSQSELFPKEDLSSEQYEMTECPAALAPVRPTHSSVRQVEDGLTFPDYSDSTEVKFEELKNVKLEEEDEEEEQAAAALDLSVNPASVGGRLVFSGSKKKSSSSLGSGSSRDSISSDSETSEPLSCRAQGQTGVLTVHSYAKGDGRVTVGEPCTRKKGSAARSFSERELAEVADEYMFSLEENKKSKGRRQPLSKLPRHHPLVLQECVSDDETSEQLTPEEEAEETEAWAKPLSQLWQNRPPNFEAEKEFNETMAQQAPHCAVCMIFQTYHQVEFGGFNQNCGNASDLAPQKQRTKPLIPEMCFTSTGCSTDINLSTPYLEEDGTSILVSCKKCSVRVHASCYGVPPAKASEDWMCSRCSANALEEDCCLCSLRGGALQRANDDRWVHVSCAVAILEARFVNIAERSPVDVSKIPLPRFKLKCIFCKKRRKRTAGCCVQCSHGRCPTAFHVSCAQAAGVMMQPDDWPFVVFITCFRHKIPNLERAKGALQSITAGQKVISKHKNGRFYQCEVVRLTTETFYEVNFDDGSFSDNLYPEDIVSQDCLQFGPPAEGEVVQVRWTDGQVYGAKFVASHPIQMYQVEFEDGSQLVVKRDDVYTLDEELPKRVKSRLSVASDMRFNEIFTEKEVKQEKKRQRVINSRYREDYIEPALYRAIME

[16] = target: Nuclear receptor subfamily 1 group D member 2 (Homo sapiens, UniProt Q14995); assay: Affinity On-target Cellular interaction: (Reporter gene assay (HEK293T cells)) EUB0001152a NR1D2; type: functional, cell-based, HEK-293T; design: mode of action Agonist, recommended concentration 10 uM
Chain of Nuclear receptor subfamily 1 group D member 2 (Q14995 whole entry): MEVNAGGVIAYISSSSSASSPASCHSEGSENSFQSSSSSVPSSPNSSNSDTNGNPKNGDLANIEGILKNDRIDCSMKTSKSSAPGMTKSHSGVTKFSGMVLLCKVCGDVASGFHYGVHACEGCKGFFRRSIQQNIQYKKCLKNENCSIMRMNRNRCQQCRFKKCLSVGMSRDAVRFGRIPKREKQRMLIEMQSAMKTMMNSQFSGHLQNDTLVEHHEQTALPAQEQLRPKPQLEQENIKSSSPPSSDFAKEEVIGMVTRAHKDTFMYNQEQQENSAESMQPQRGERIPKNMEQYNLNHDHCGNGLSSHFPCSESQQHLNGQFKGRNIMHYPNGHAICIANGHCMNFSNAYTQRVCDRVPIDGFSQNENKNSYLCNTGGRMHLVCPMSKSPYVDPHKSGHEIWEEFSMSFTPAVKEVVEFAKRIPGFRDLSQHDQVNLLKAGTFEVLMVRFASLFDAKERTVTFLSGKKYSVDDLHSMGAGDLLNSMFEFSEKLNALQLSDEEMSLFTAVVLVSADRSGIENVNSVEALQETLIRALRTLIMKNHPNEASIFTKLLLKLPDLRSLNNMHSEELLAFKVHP

With `CSc1ccc(C(=O)/C=C/c2cc(C)c(OC(C)(C)C(=O)O)c(C)c2)cc1` [ELAFIBRANOR] as the compound, how does the EC50 [1] read?
Its EC50 is 410 nM.

And the EC50 [2]?
Its EC50 is 130 nM.

With `C=C1/C(=C\C=C2/CCC[C@]3(C)[C@@H]([C@H](C)/C=C/C=C/C(O)(CC)CC)CC[C@@H]23)C[C@@H](O)C[C@@H]1O` [SEOCALCITOL] as the compound, how does the EC50 (Vitamin D3 receptor) read?
Its EC50 is 110 nM.

`CCCc1c(OCCCOc2ccc(OCC(=O)O)cc2)ccc(C(C)=O)c1O` was tested. Which EC50 [3] did it give?
The EC50 was 1000 nM.

And the EC50 [4]?
Its EC50 is 15 nM.

And the EC50 [5]?
Its EC50 is 980 nM.

`COC(=O)c1sccc1S(=O)(=O)Nc1ccc(Nc2ccccc2)cc1OC` was tested. Which IC50 [6] did it give?
Its IC50 is 7600 nM.

And the IC50 [7]?
The IC50 was 6100 nM.

Which EC50 [8] does the source give for `COc1ccc(OC(=O)N(CC(=O)O)Cc2ccc(OCCc3nc(-c4ccccc4)oc3C)cc2)cc1` [MURAGLITAZAR] here?
Its EC50 is 50 nM.

Which EC50 [9] does the source give for `Fc1ccc(-c2c3cccc(C(F)(F)F)c3nn2Cc2ccc(F)cc2Cl)cc1` [LXR-623] here?
The EC50 was 4000 nM.

What about the EC50 [10] of the same compound?
Its EC50 is 7000 nM.

`O=C(NCCS(=O)(=O)c1ccc(C(F)(F)F)cn1)c1ccc(Cl)cc1` was tested. Which IC50 [11] did it give?
The IC50 was 100 nM.

Which IC50 [12] does the source give for `Cc1cc(C)c(S(=O)(=O)N(Cc2ccc(-c3cccc(S(C)(=O)=O)c3)cc2)Cc2ccc(C(F)(F)F)o2)c(C)c1` here?
The IC50 was 100 nM.

And the IC50 [13]?
The IC50 was 40 nM.

How did the EC50 [14] turn out when `COC(=O)C(Cc1ccc(OCCn2c(=O)sc3cc(C(=O)c4ccccc4)ccc32)cc1)C(=O)OC` was run?
The EC50 was 42 nM.

Which K [15] does the source give for `CC(C)[C@@H]1NC(=O)[C@H](Cc2ccc(O)cc2)NC(=O)[C@@H](CC(=O)O)NC(=O)S[C@@H](C(=O)O)NC(=O)[C@H]([C@H](C)O)NC(=O)[C@H](Cc2ccc(O)cc2)NC(=O)[C@H](Cc2c[nH]c3ccccc23)NC(=O)[C@H](CCCNC(=N)N)NC(=O)[C@H](Cc2c[nH]c3ccccc23)NC(=O)[C@H](C)NC(=O)[C@H](CO)NC(=O)[C@H](CCCNC(=N)N)NC(=O)[C@H]([C@H](C)O)NC(=O)[C@H](CC(N)=O)NC(=O)[C@H](Cc2ccc(O)cc2)NC1=O` here?
The K was 285 nM.

How did the EC50 [16] turn out when `CCOC(=O)N1CCC(CN(Cc2ccc(Cl)cc2)Cc2ccc([N+](=O)[O-])s2)C1` (configuration not stated) [SR9009] was run?
The EC50 was 11000 nM.
